Data reported in paper PMC12135066, “Design and Preclinical Evaluation of Novel uPAR-Targeting Radiopeptides Modified with an Albumin-Binding Entity” (Molecular Pharmaceutics, 2025).
Read-outs that look alike come from different tables or passages of the source.

Key:
in vitro [1] = details: human, plasma
in vitro [2] = details: mouse, plasma
human uPAR [3] = molecular target: T1, human uPAR (Homo sapiens, UniProt Q03405); assay: uPAR-binding affinity (KD values), saturation experiments with HEK-uPAR cells; details: saturation binding on HEK-uPAR cells, on ice (4 °C) 1 h, 1–1600 nM radiopeptide, ± AE105 40 µM; γ-counter; nonlinear regression; average ± SD, n=3
T1 construct: host or cells: HEK cells (HEK-uPAR)
T1 sequence (Q03405 23-335): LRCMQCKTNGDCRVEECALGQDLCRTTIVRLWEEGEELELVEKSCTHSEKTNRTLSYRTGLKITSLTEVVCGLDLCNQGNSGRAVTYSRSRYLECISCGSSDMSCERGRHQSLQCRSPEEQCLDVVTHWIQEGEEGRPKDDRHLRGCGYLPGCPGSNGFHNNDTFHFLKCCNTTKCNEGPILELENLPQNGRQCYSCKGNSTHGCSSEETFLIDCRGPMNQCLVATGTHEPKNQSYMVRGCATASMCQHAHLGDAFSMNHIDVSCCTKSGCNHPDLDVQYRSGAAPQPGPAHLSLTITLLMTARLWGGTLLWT
Protocol: To determine the uPAR-binding affinity of the radiopeptides, saturation experiments were performed using HEK-uPAR cells in 48-well plates (Supporting Information). The cells were incubated on ice for 1 h in the presence or absence of excess AE105 (final concentration of 40 μM) together with the respective radiopeptide at a concentration range of 1–1600 nM. After rinsing the cells with PBS, they were lysed with an aqueous NaOH solution (1 M, 600 μL), transferred to radioimmunoassay tubes, and measured in a γ-counter (1480 Wizard, PerkinElmer). The K D values were determined by plotting the specific binding (values of samples incubated without AE105 minus the values of samples incubated with AE105) against the molar concentration of the added peptide. A nonlinear regression analysis was performed using GraphPad Prism software (version 8.3.1). The results were expressed as average ± SD of n = 3 independently performed experiments. […]
7. Determination of uPAR-Binding Affinity (KD Values)
Purpose: The uPAR-binding affinity of the radiopeptides were determined to investigate the impact of structural changes on the receptor binding.
Methods: HEK-uPAR cells were seeded in poly-D-lysine-coated 48-well plates (0.25 × 10 6 in 0.5 mL per well) using DMEM cell culture medium with supplements. The cells were incubated at 37 °C and 5% CO2 overnight to allow adhesion and growth. After removing the supernatant, the well plates with HEK-uPAR cells were placed on ice to prevent internalization of the radiopeptides. The cells were rinsed with cold PBS (0.5 mL, pH 7.4) followed by the addition of DMEM cell culture medium without supplements (450 µL/well) in the presence or absence of AE105 ( final concentration 40 µM) as a receptor-blocking agent. The radiopeptides (5 MBq/nmol) were diluted in PBS to obtain peptide concentrations ranging from 10 ‒16000 nM. From each dilution, 50 µL were added to each well to obtain final peptide concentrations of 1 nM to 1600 nM. The cells were incubated at 4 °C for 1 h before rinsing twice with PBS (0.5 mL, pH 7.4). The cells were lysed using an aqueous NaOH solution (1 M, 600 µL) and the lysates were transferred to RIA tubes for counting the activity in a γ-counter (1480 Wizard, PerkinElmer) . The KD values were determined by plotting specific binding (total binding minus unspecific binding) against the molar concentration of the added radiopeptide using GraphPad Prism (version 8.3.1). the results were then expressed as average K D values ± SD of n = 3 independent […]
Results: The results are reported in the main article.

in vivo = details: female, mouse, total radioactivity
physchem = details: pH 7.4
human uPAR [4] = molecular target: T1, human uPAR; details: reported value; ref not printed (citation marks lost in b4); read-out: binding affinity to human uPAR (KD); cited from earlier work
Protocol: The expression pattern of uPAR makes it a relevant tumor-associated marker for targeting with diagnostic and therapeutic radiopharmaceuticals. Previously, a synthetic uPAR-binding nonapeptide, referred to as AE105, was identified using phage display methodologies and affinity maturation techniques. , The reported strong binding affinity to human uPAR (K D = 0.4 nM) made AE105 an interesting candidate for the development of nuclear imaging agents and radiotherapeutics. , AE105 was conjugated with various macrocyclic chelators to enable the coordination of copper-64, gallium-68, and lutetium-177 ...

[5] = system: HEK-uPAR xenograft-bearing nude mice; details: mouse, in vivo
[6] = CD1/nude (Crl:CD1-Foxn nu), 0.5 nmol, Blood
[7] = CD1/nude, 5 MBq (0.5 nmol), Blood
[8] = CD1/nude, 5 MBq (0.5 nmol), Bone
[9] = CD1/nude, 5 MBq (0.5 nmol), Brain
[10] = CD1/nude, 5 MBq (0.5 nmol), HEK-uPAR xgft
[11] = CD1/nude, 5 MBq (0.5 nmol), Heart
[12] = CD1/nude, 5 MBq (0.5 nmol), Intestines
[13] = CD1/nude, 5 MBq (0.5 nmol), Kidneys
[14] = CD1/nude, 5 MBq (0.5 nmol), Liver
[15] = CD1/nude, 5 MBq (0.5 nmol), Lung
[16] = CD1/nude, 5 MBq (0.5 nmol), Muscle
[17] = CD1/nude, 5 MBq (0.5 nmol), Pancreas
[18] = CD1/nude, 5 MBq (0.5 nmol), Salivary glands
[19] = CD1/nude, 5 MBq (0.5 nmol), Spleen
[20] = CD1/nude, 5 MBq (0.5 nmol), Stomach
[21] = CD1/nude (Crl:CD1-Foxn nu), 0.5 nmol, HEK-uPAR xgft

Row | Compound | remaining at 1 h, 10 MBq/200 µL (in vitro [1]) [%] | remaining at 4 h, 10 MBq/200 µL (in vitro [1]) [%] | remaining at 24 h, 10 MBq/200 µL (in vitro [1]) [%] | remaining at 1 h, 10 MBq/200 µL (in vitro [2]) [%] | remaining at 4 h, 10 MBq/200 µL (in vitro [2]) [%] | remaining at 24 h, 10 MBq/200 µL (in vitro [2]) [%] | Kd (human uPAR [3]) [nM] | tissue uptake at 24 h (in vivo; [6]) [%ID/g] | tissue uptake at 4 h (in vivo; [7]) [%ID/g] | tissue uptake at 4 h (in vivo; [8]) [%ID/g] | tissue uptake at 24 h (in vivo; [8]) [%ID/g] | tissue uptake at 4 h (in vivo; [9]) [%ID/g] | tissue uptake at 24 h (in vivo; [9]) [%ID/g] | tissue uptake at 4 h (in vivo; [11]) [%ID/g] | tissue uptake at 24 h (in vivo; [11]) [%ID/g] | tissue uptake at 4 h (in vivo; [12]) [%ID/g] | tissue uptake at 24 h (in vivo; [12]) [%ID/g] | tissue uptake at 4 h (in vivo; [13]) [%ID/g] | tissue uptake at 24 h (in vivo; [13]) [%ID/g] | tissue uptake at 4 h (in vivo; [14]) [%ID/g] | other results
1 | CC(C)C[C@H](NC(=O)[C@H](Cc1ccc(O)cc1)NC(=O)[C@@H](CCCNC(=N)N)NC(=O)[C@@H](CO)NC(=O)[C@H](Cc1ccccc1)NC(=O)[C@H](CC1CCCCC1)NC(=O)[C@H](CC(=O)O)NC(=O)[C@H](CCCCNC(=O)CCOCCOCCOCCOCCNC(=O)c1ccc(CNC(=O)CCCc2ccc(I)cc2)cc1)NC(=O)CN1CCN(CC(=O)O)CCN(CC(=O)O)CCN(CC(=O)O)CC1)C(=O)N[C@@H](Cc1c[nH]c2ccccc12)C(=O)N[C@@H](CO)C(N)=O [[^177Lu]Lu-uPAR-03, metal not drawn] | 100 ± 1 | 99 ± 1 | 99 ± 2 | 100 | 99 ± 1 | 98 ± 1 | 56 ± 8 | 13 ± 1 | 15 ± 1 | 1.5 ± 0.3 | 1.8 ± 0.3 | 0.31 ± 0.05 | 0.3 ± 0.01 | 4.8 ± 0.5 | 5.2 ± 0.1 | 1.8 ± 0.1 | 2 ± 0.1 | 4.1 ± 0.3 | 4.7 ± 0.2 | 3.1 ± 0.4 | tissue uptake at 4 h (in vivo; [10]): 4 ± 0.3 %ID/g; tissue uptake at 24 h (in vivo; [10]): 7.5 ± 0.2 %ID/g; tissue uptake at 24 h (in vivo; [14]): 3.2 ± 0.2 %ID/g; tissue uptake at 4 h (in vivo; [15]): 7.5 ± 0.5 %ID/g; tissue uptake at 24 h (in vivo; [15]): 7.7 ± 0.7 %ID/g; tissue uptake at 4 h (in vivo; [16]): 1.3 ± 0.1 %ID/g; tissue uptake at 24 h (in vivo; [16]): 1.5 ± 0.1 %ID/g; tissue uptake at 4 h (in vivo; [17]): 1.7 ± 0.1 %ID/g; tissue uptake at 24 h (in vivo; [17]): 1.9 ± 0.2 %ID/g; tissue uptake at 4 h (in vivo; [18]): 3.4 ± 0.4 %ID/g; tissue uptake at 24 h (in vivo; [18]): 3.6 ± 0.2 %ID/g; tissue uptake at 4 h (in vivo; [19]): 2.2 ± 0.2 %ID/g; tissue uptake at 24 h (in vivo; [19]): 3 ± 0.2 %ID/g; tissue uptake at 4 h (in vivo; [20]): 1.6 ± 0.1 %ID/g; tissue uptake at 24 h (in vivo; [20]): 1.8 ± 0.1 %ID/g; logD (physchem): 0.37 ± 0.14
2 | Asp-Cha-Phe-ser-arg-Tyr-Leu-Trp-Ser (DAFSRYLWS; Printed as Asp-Cha-Phe-ser-arg-Tyr-Leu-Trp-Ser. Residue 2 is Cha (L-beta-cyclohexylalanine, written as parent Ala, as in PDB 1YWH entity 2); D-Ser4; D-Arg5; Linear; C-terminal form (acid or amide) not) [AE105] | – | – | – | – | – | – | – | – | – | – | – | – | – | – | – | – | – | – | – | – | Kd (human uPAR [4]): 0.4 nM
3 | CC(C)C[C@H](NC(=O)[C@H](Cc1ccc(O)cc1)NC(=O)[C@@H](CCCNC(=N)N)NC(=O)[C@@H](CO)NC(=O)[C@H](Cc1ccccc1)NC(=O)[C@H](CC1CCCCC1)NC(=O)[C@H](CC(=O)O)NC(=O)[C@H](CCCCNC(=O)CCOCCOCCOCCOCCNC(=O)CCCc1ccc(I)cc1)NC(=O)CN1CCN(CC(=O)O)CCN(CC(=O)O)CCN(CC(=O)O)CC1)C(=O)N[C@@H](Cc1c[nH]c2ccccc12)C(=O)N[C@@H](CO)C(N)=O [[^177Lu]Lu-uPAR-02, metal not drawn] | 100 ± 1 | 99 ± 1 | 99 ± 1 | 100 ± 1 | 98 ± 1 | 98 ± 2 | 32 ± 12 | 6 ± 0.5 | 16 ± 1 | 1.8 ± 0.2 | 1.2 ± 0.1 | 0.34 ± 0.03 | 0.13 ± 0.02 | 4.8 ± 0.2 | 2.5 ± 0.3 | 1.8 ± 0.2 | 0.84 ± 0.13 | 5.5 ± 0.2 | 3.6 ± 0.2 | 2.8 ± 0.3 | tissue uptake at 4 h (in vivo; [21]): 11 ± 2 %ID/g; tissue uptake at 24 h (in vivo; [21]): 10 ± 3 %ID/g; tissue uptake at 24 h (in vivo; [14]): 1.6 ± 0.2 %ID/g; tissue uptake at 4 h (in vivo; [15]): 7.2 ± 0.3 %ID/g; tissue uptake at 24 h (in vivo; [15]): 4 ± 0.2 %ID/g; tissue uptake at 4 h (in vivo; [16]): 1.4 ± 0.1 %ID/g; tissue uptake at 24 h (in vivo; [16]): 0.9 ± 0.06 %ID/g; tissue uptake at 4 h (in vivo; [17]): 1.8 ± 0.1 %ID/g; tissue uptake at 24 h (in vivo; [17]): 0.92 ± 0.06 %ID/g; tissue uptake at 4 h (in vivo; [18]): 3.2 ± 0.4 %ID/g; tissue uptake at 24 h (in vivo; [18]): 1.8 ± 0.2 %ID/g; tissue uptake at 4 h (in vivo; [19]): 2.2 ± 0.1 %ID/g; tissue uptake at 24 h (in vivo; [19]): 2 ± 0.2 %ID/g; tissue uptake at 4 h (in vivo; [20]): 1.6 ± 0.3 %ID/g; tissue uptake at 24 h (in vivo; [20]): 0.69 ± 0.03 %ID/g; logD (physchem): 0.25 ± 0.02; fold higher activity retention in the HEK-uPAR xenograft than [177Lu]Lu-DOTA-AE105 [5]: over 10 fold; fold higher xenograft-to-kidney ratio than [177Lu]Lu-DOTA-AE105 [5]: > 3 fold
